{"source": "patent US20240156856A1", "about": "“NOVEL APPLICATIONS OF HYALURONIC ACID FOR TREATMENT OF PAIN AND PRURITIS” (THE REGENTS OF THE UNIVERSITY OF CALIFORNIA, priority 2022, published 2024)", "key": {"rats": {"test_system": "rats", "conditions": "previously shown; cited from earlier work"}, "[1]": {"test_system": "rats with oxaliplatin CIPN", "test": "Oxaliplatin CIPN mechanical hyperalgesia, Randall-Selitto paw-withdrawal test", "format": "in vivo, Sprague-Dawley rats", "protocol": "(§1) Experimental animals. Experiments were performed on 220-400 g male and female Sprague-Dawley rats, purchased from Charles River Laboratories (Hollister, CA, USA), housed three per cage, under a 12-hour light/dark cycle, in a temperature- and humidity-controlled animal care facility at the University of California, San Francisco. Food and water were available ad libitum. Experimental protocols were approved by the University of California, San Francisco, Institutional Animal Care and Use Committee, and adhered to the National Institutes of Health Guidelines for the care and use of laboratory animals.\n(§2) Measurement of nociceptive threshold. Mechanical nociceptive threshold was quantified with an Ugo Basile Analgesymeter (Stoelting, Wood Dale, IL, USA), used to perform the Randall-Selitto paw-withdrawal test [61; 68; 69]. This device uses a dome-shaped plinth to apply a mechanical force that increases linearly with time, to the dorsum of a rat's hindpaw. To perform the Randall-Selitto paw-withdrawal test, rats were placed in cylindrical acrylic restrainers with lateral ports that allow access to the hind paw, as described previously. Rats were acclimatized to the testing procedure by placing them in restrainers for 1 h per day for 3 consecutive daily training sessions, and for 30-40 min prior to experiments.\n(§3) Mechanical nociceptive threshold is defined as the force, in grams, applied by the plinth to the dorsum of the hindpaw, at which a rat withdraws its paw from the stimulus. Baseline paw-withdrawal threshold is defined as the mean of three readings taken before administration of test agents. To minimize experimenter bias, individuals conducting experiments were blinded to experimental treatments. Each experiment was performed on a different group of rats. Data are presented as mechanical nociceptive threshold, in grams (g) or percentage change from preintervention baseline.\nHyaluronans were initially dissolved in distilled water (dH2O) at a concentration of 10 μg/μL, stock solution, and further diluted by adding DMSO with three final concentrations of hyaluronan (1, 2 and 4 μg/μL), protamine or terpene; unless otherwise stated, the final concentration of DMSO was 75%. The DMSO vehicle was 75% DMSO in 0.9% saline. In one experiment, 500-1200 kDa hyaluronan was administered topically in 0.9% saline vehicle. PGE2 was dissolved in 0.9% saline at the same final concentration that we previously injected intradermally (100 ng/5 μL). In the experiments in which hyaluronan was dissolved in protamine or terpene vehicle, protamine was first dissolved in distilled water (dH2O) to a concentration of 5 μg/μ1, stock solution of hyaluronan was combined with protamine at the final concentration of 2 μg/μ1, in a volume of 3 μl, for topical administration; terpene was first dissolved in dH2O at the concentration of 2 μg/μ1, then hyaluronan was dissolved in stock solution of terpene to its final concentration of 2 μg/μ1, in a volume of 3 μl, for topical administration).\nOxaliplatin CIPN: Oxaliplatin was freshly dissolved in 0.9% saline at a concentration of 2 mg/mL just prior to its tail vein intravenous (i.v.) administration (1 mL/kg), to rats briefly anesthetized with isoflurane (2.5% in O2).\nHyaluronans (30 μL) were administered topically on the dorsum of the hind paw, dispensed from a P200 pipette (Gilson, Middleton, WI, USA) with a plastic pipette tip and then spread manually. […]\nBefore use, ODNs were reconstituted in nuclease-free 0.9% saline and then administered by the intrathecal (i.t.) route. As described previously, rats were anesthetized with isoflurane (2.5% in O2) and 120 μg of ODN, in a volume of 20 μL, injected i.t., using a syringe ([…]) attached to a 29-gauge hypodermic needle that was inserted into the subarachnoid space, between the L4 and L5 vertebrae. The i.t. site of the injectate was confirmed by a sudden flick of the rat's tail, a reflex evoked by subarachnoid space access and bolus i.t. injection. […]"}, "[2]": {"test_system": "PGE2 hyperalgesia in male and female rats", "test": "PGE2-induced mechanical hyperalgesia, Randall-Selitto paw-withdrawal test", "format": "in vivo, Sprague-Dawley rats", "conditions": "for PGE2-induced hyperalgesia (mechanical nociceptive threshold): topical 2 μg/μL in 30 μL DMSO vehicle, 30 and 60 min after PGE2", "protocol": "as §1, §2, §3\nHyaluronans were initially dissolved in distilled water (dH2O) at a concentration of 10 μg/μL, stock solution, and further diluted by adding DMSO with three final concentrations of hyaluronan (1, 2 and 4 μg/μL), protamine or terpene; unless otherwise stated, the final concentration of DMSO was 75%. The DMSO vehicle was 75% DMSO in 0.9% saline. In one experiment, 500-1200 kDa hyaluronan was administered topically in 0.9% saline vehicle. PGE2 was dissolved in 0.9% saline at the same final concentration that we previously injected intradermally (100 ng/5 μL). […]"}, "[3]": {"test_system": "rats with bortezomib CIPN", "test": "Bortezomib CIPN mechanical hyperalgesia, Randall-Selitto paw-withdrawal test", "format": "in vivo, Sprague-Dawley rats", "conditions": "topical 2 μg/μL", "protocol": "as §1, §2\nas §3, with “baseline. […]” for “baseline.”"}, "[4]": {"test_system": "5-HT-induced scratching behavior in rats", "test": "5-HT-induced scratching (itch) behavior", "format": "in vivo", "conditions": "topical, protamine vehicle", "protocol": "Topical hyaluronan attenuates itch behavior in rats. Intradermal administration of serotonin (5-HT) elicited acute scratching behavior, using the method of Nojima and Carstens {Nojima and Carstens, 2003, #99335; PMID: 12814838}. Rats were acclimated to a testing chamber for 30 min, and then briefly anesthetized with 2% isoflurane, during which the fur over the nape of the neck was shaved, and 5-HT (200 μg in 10 μl 0.9% saline vehicle) injected with a 30 gauge needle. In the topical hyaluronan group, hyaluronan (100 μg in 50 μl 75% DMSO in water vehicle) was applied to the skin 30 mins and again 5 mins before administration of 5-HT. Rats were placed back into testing chambers and their behavior video recorded for 40 min. Number of hind paw scratches directed at the injection site were counted by watching video playback at half normal speed, and total number of scratches in 2-min intervals recorded. Rats were treated with 5-HT alone and topical hyaluronan with 5-HT, with 4 days between experimental sessions, allowing for use of paired t-tests to compare data. Data are presented as cumulative number of scratches (FIG. 9A), and as total scratches over the 40-min observation period (FIG. 9B). […] See also, FIG. 10, which includes additional data showing that topical hyaluronan attenuates 5-HT-induced scratching behavior. […] Data are presented as cumulative number of scratches."}}, "note": "“Also recorded” adds a separate entry of the source."}
{"substance": "hyaluronan [500-1200 kDa hyaluronan]", "values": [{"measurement": "nociceptive effect of intradermal injection", "setting": "rats", "result": "induced anti-hyperalgesia"}, {"measurement": "duration of anti-hyperalgesic effect after initial topical application", "setting": "[1]; CIPN rats, initial application, DMSO vehicle", "result": "approximately 60 minutes"}, {"measurement": "hyperalgesia induced by oxaliplatin", "setting": "[1]; female rats given i.t. GPR30 antisense or mismatch ODN, topical 2 μg/μL, 30 μL", "result": "attenuated the hyperalgesia induced by oxaliplatin only in the GPR30 antisense-treated group"}, {"measurement": "hyperalgesia induced by oxaliplatin", "setting": "[1]; gonad intact female rats, topical 2 μg/μL, 30 μL in DMSO vehicle", "result": "did not attenuate hyperalgesia"}, {"measurement": "hyperalgesia induced by oxaliplatin", "setting": "[1]; male rats given i.t. CD44 antisense or mismatch ODN, topical 2 μg/μL, 30 μL in DMSO", "result": "only attenuated the hyperalgesia induced by oxaliplatin in the CD44 mismatch-treated group"}, {"measurement": "CIPN hyperalgesia, effect of hyaluronan molecular weight range", "setting": "[1]; male rats with oxaliplatin CIPN, topical, combined with DMSO", "result": "produced robust anti-hyperalgesia, of similar magnitude and duration"}, {"measurement": "time at which anti-hyperalgesia was still present after the second administration", "setting": "[1]; male rats, reapplied at the same site after first effect wore off, DMSO vehicle", "result": "≥ 180", "unit": "min"}, {"measurement": "oxaliplatin CIPN hyperalgesia", "setting": "[1]; male rats, topical 1 μg/μL, 30 μL in DMSO, day 7", "result": "only attenuates CIPN hyperalgesia 10 min after application"}, {"measurement": "oxaliplatin CIPN hyperalgesia", "setting": "[1]; male rats, topical 2 μg/μL in 0.9% saline, without DMSO", "result": "did not attenuate oxaliplatin CIPN hyperalgesia"}, {"measurement": "anti-hyperalgesia in oxaliplatin CIPN", "setting": "[1]; male rats, topical 2 μg/μL, 30 μL in 5% DMSO", "result": "did not produce anti-hyperalgesia"}, {"measurement": "anti-hyperalgesia in oxaliplatin CIPN", "setting": "[1]; male rats, topical 2 μg/μL, 30 μL in 15% DMSO", "result": "did not produce anti-hyperalgesia"}, {"measurement": "anti-hyperalgesia in oxaliplatin CIPN", "setting": "[1]; male rats, topical 2 μg/μL, 30 μL in 20% DMSO", "result": "produced anti-hyperalgesia"}, {"measurement": "anti-hyperalgesia in oxaliplatin CIPN", "setting": "[1]; male rats, topical 2 μg/μL, 30 μL in 25% DMSO", "result": "produced anti-hyperalgesia"}, {"measurement": "anti-hyperalgesia in oxaliplatin CIPN", "setting": "[1]; male rats, topical 2 μg/μL, 30 μL in 50% DMSO", "result": "produced anti-hyperalgesia"}, {"measurement": "anti-hyperalgesia in oxaliplatin CIPN", "setting": "[1]; male rats, topical 2 μg/μL, 30 μL in 75% DMSO", "result": "produced anti-hyperalgesia"}, {"measurement": "oxaliplatin CIPN hyperalgesia", "setting": "[1]; male rats, topical 2 μg/μL, 30 μL in DMSO, day 7", "result": "attenuated hyperalgesia 10, 30 and 60 min after application; also recorded: induced anti-hyperalgesia"}, {"measurement": "time by which anti-hyperalgesia dissipated, first administration", "setting": "[1]; male rats, topical 2 μg/μL, 30 μL in DMSO, repeated-administration experiment", "result": "≤ 120", "unit": "min"}, {"measurement": "oxaliplatin CIPN hyperalgesia", "setting": "[1]; male rats, topical 4 μg/μL, 30 μL in DMSO, day 7", "result": "attenuated hyperalgesia 10, 30 and 60 min after application"}, {"measurement": "time after application by which the anti-hyperalgesic effect dissipated", "setting": "[1]; male rats, topical 2 and 4 μg/μL in DMSO", "result": "≤ 120", "unit": "min"}, {"measurement": "anti-hyperalgesia in oxaliplatin-induced CIPN", "setting": "[1]; ovariectomized female rats, topical 2 μg/μL, 30 μL in DMSO", "result": "induced anti-hyperalgesia of similar magnitude to that observed in gonad intact male rats"}, {"measurement": "PGE2-induced hyperalgesia (mechanical nociceptive threshold)", "setting": "[2]; female rats", "result": "attenuated PGE2-induced hyperalgesia"}, {"measurement": "PGE2-induced hyperalgesia (mechanical nociceptive threshold)", "setting": "[2]; male rats", "result": "attenuated PGE2-induced hyperalgesia"}, {"measurement": "magnitude of topical anti-hyperalgesia compared with intradermal injection", "setting": "[2]; topical, combined with DMSO", "result": "anti-hyperalgesia of similar magnitude to that produced by its intradermal injection"}, {"measurement": "hyperalgesia induced by bortezomib", "setting": "[3]; female rats, 30 μL in DMSO vehicle", "result": "did not attenuate hyperalgesia"}, {"measurement": "hyperalgesia induced by bortezomib", "setting": "[3]; male rats, 30 μL in DMSO, day 7", "result": "attenuated hyperalgesia induced by bortezomib"}, {"measurement": "number of 5-HT-induced scratches", "setting": "[4]; female rats", "result": "significantly attenuated the number of 5-HT-induced scratches"}, {"measurement": "number of 5-HT-induced scratches", "setting": "[4]; male rats", "result": "significantly attenuated the number of 5-HT-induced scratches"}]}
